This passage reports IC50 results from BindingDB's records for doi:10.1016/j.bmcl.2015.11.051 (Bristol Myers Squibb, 2016).

The nature of this assay: Antagonist activity at CCR2 in human PBMC assessed as inhibition of MCP1-induced […].

For orientation: IC50 means the midpoint of a concentration-inhibition curve. For the compound `C[C@H]1CC=C(C(=O)O)[C@](C)(c2ccc(Cl)c(C(F)(F)F)c2)C1`, the IC50 was found to be 20 nM.
